Values after ≈ are worked out from the molar mass of the structure shown. *1 amine or outer side, *2 acyl side, *3 side chain or, on linkers, in order; H or OH if unused. Where a SMILES comes first, the peptide text is derived from it. Bridges are numbered along the chain shown (N, C = ends). Side-chain parts run from the residue outwards. [ ]: non-standard residue; d: D form. The star is where a group is joined. ξ: configuration not given here. NH(4-cHex-phenyl) = c1cc(C2CCCCC2)ccc1N*; X4 = NC1=NCCC([C@H](N[*:1])C(=O)[*:2])N1; ΔAla(Z-3-ureido) = NC(=O)N/C=C(\N)C(=O)O; ΔDap(Z) = O=C(/C(=C/N[*:3])N[*:1])[*:2]; X6 = c1ccc(Cc2ccc(N*)cc2)cc1; β3hOrn = NCCC[C@H](N)CC(=O)*; X7 = c1cc(N2CCCCC2)ccc1N*; Dap = NC[C@H](N)C(=O)O; CO = O=C([*:1])[*:2]; X5 = Clc1cc(N*)ccc1I; ξDap = NCC(N)C(=O)O
What was measured:
Type in all cases: functional
Enterococcus faecalis [1] = assay: In vitro antibacterial activity against E. faecalis( vancomycin, methicillin and ciprofloxacin resistant), expressed as minimum inhibitory concentration (MIC)
Enterococcus faecium [2] = assay: In vitro antibacterial activity against Enterococcus faecium (vancomycin, methicillin and ciprofloxacin resistant), expressed as minimum inhibitory concentration (MIC).
Pasteurella multocida = assay: In vitro antibacterial activity against Pasteurella multocida, expressed as minimum inhibitory concentration (MIC)
Staphylococcus aureus = assay: In vitro antibacterial activity against methicillin-resistant Staphylococcus aureus (MRSA), expressed as minimum inhibitory concentration (MIC)
Escherichia coli = assay: In vitro antibacterial activity against Escherichia coli, expressed as minimum inhibitory concentration (MIC)
Enterococcus faecalis [3] = assay: In vitro antibacterial activity against Enterococcus faecalis (vancomycin, methicillin and ciprofloxacin resistant), expressed as minimum inhibitory concentration (MIC)
Mus musculus [4] = assay: In vivo activity against Pasteurella multocida in mice after subcutaneous administration; conditions: sc, read-out: PD50
Enterococcus faecium [5] = assay: Protective dose against both MRSA and vancomycin-resistant Enterococcus faecium.; conditions: read-out: PD50
Mus musculus [6] = assay: In vivo activity against Pasteurella multocida in mice; conditions: read-out: PD50
Mus musculus [7] = assay: In vivo activity against Escherichia coli in mice after subcutaneous administration; Range is 8-10 mg/kg; conditions: sc, read-out: PD50
Mus musculus [8] = assay: In vivo activity against Pasteurella multocida in mice after subcutaneous administration; Range is 8-10 mg/kg; conditions: sc, read-out: PD50

Compound | MIC (Enterococcus faecalis [1]) [µg/mL] | MIC (Enterococcus faecium [2]) [µg/mL] | MIC (Pasteurella multocida) [µg/mL] | MIC (Staphylococcus aureus) [µg/mL] | MIC (Escherichia coli) [µg/mL] | MIC (Enterococcus faecalis [3]) [µg/mL] | ED50 (Mus musculus [4]) [mg/kg] | ED50 (Enterococcus faecium [5]) [mg/kg] | ED50 (Mus musculus [6]) [mg/kg] | ED50 (Mus musculus [7]) [mg/kg] | ED50 (Mus musculus [8]) [mg/kg]
C[C@@H]1NC(=O)C(N)CNC(=O)[C@H](C2CCN=C(N)N2)NC(=O)/C(=C/NC(N)=O)NC(=O)[C@H](CNC(=O)C[C@@H](N)CCCN)NC1=O.NCCC[C@H](N)CC(=O)NC[C@@H]1NC(=O)[C@H](CO)NC(=O)C(N)CNC(=O)[C@H](C2CCN=C(N)N2)NC(=O)/C(=C/NC(N)=O)NC1=O (stereo partly drawn) (H-[ξDap]S[Dap](β3hOrn)[ΔAla(Z-3-ureido)][X4]; lactam 1-C) | > 1000 | > 1000 | 50 | 100 | 200 |  |  |  |  |  | 
C[C@@H]1NC(=O)C(N)CNC(=O)[C@H](C2CCN=C(N)N2)NC(=O)/C(=C/Nc2ccc(C3CCCCC3)cc2)NC(=O)[C@H](CNC(=O)C[C@@H](N)CCCN)NC1=O.NCCC[C@H](N)CC(=O)NC[C@@H]1NC(=O)[C@H](CO)NC(=O)C(N)CNC(=O)[C@H](C2CCN=C(N)N2)NC(=O)/C(=C/Nc2ccc(C3CCCCC3)cc2)NC1=O (stereo partly drawn) |  | 6.25 | 0.2 | 1.56 | 6.25 | 12.5 | 2 |  |  |  | 
C[C@@H]1NC(=O)C(N)CNC(=O)[C@H](C2CCN=C(N)N2)NC(=O)/C(=C/Nc2nc(-c3ccc(Br)cc3)cs2)NC(=O)[C@H](CNC(=O)C[C@@H](N)CCCN)NC1=O.NCCC[C@H](N)CC(=O)NC[C@@H]1NC(=O)[C@H](CO)NC(=O)C(N)CNC(=O)[C@H](C2CCN=C(N)N2)NC(=O)/C(=C/Nc2nc(-c3ccc(Br)cc3)cs2)NC1=O (stereo partly drawn) |  | 12.5 | 3.13 | 12.5 | 100 | 50 |  |  |  |  | 
NCCC[C@H](N)CC(=O)NC[C@@H]1NC(=O)[C@H](CO)NC(=O)C(N)CNC(=O)[C@H](C2CCN=C(N)N2)NC(=O)/C(=C/NC(=O)Nc2cc(Cl)c(Cl)c(Cl)c2)NC1=O (stereo partly drawn) |  | 1.56 (≈ 1.84 µM) | 0.2 (≈ 0.236 µM) | 0.78 (≈ 0.92 µM) | 12.5 (≈ 14.7 µM) | 3.12 (≈ 3.68 µM) |  | 3 | 4 |  | 
C[C@@H]1NC(=O)C(N)CNC(=O)[C@H](C2CCN=C(N)N2)NC(=O)/C(=C/Nc2ccc(Cl)c(Cl)c2)NC(=O)[C@H](CNC(=O)C[C@@H](N)CCCN)NC1=O.NCCC[C@H](N)CC(=O)NC[C@@H]1NC(=O)[C@H](CO)NC(=O)C(N)CNC(=O)[C@H](C2CCN=C(N)N2)NC(=O)/C(=C/Nc2ccc(Cl)c(Cl)c2)NC1=O (stereo partly drawn) |  | 12.5 | 0.39 | 0.78 | 6.25 | 25 | 6 |  |  |  | 
NCCC[C@H](N)CC(=O)NC[C@@H]1NC(=O)[C@H](CO)NC(=O)C(N)CNC(=O)[C@H](C2CCN=C(N)N2)NC(=O)/C(=C/NC(=O)Nc2ccc(C3CCCCC3)cc2)NC1=O (stereo partly drawn) (H-[ξDap]S[Dap](β3hOrn)[ΔDap(Z)]([CO-NH(4-cHex-phenyl)])[X4]; lactam 1-C) |  | 1.56 (≈ 1.89 µM) | 0.39 (≈ 0.472 µM) | 1.56 (≈ 1.89 µM) | 25 (≈ 30.2 µM) | 3.12 (≈ 3.77 µM) |  |  |  |  | 
NCCC[C@H](N)CC(=O)NC1CNC(=O)[C@H](C2C[C@@H](O)N=C(N)N2)NC(=O)/C(=C/Nc2ccc(Cl)c(Cl)c2)NC(=O)[C@H](CO)NC(=O)[C@H](CO)NC1=O (stereo partly drawn) |  | 25 (≈ 31.7 µM) | 0.78 (≈ 0.99 µM) | 12.5 (≈ 15.9 µM) | 12.5 (≈ 15.9 µM) | 50 (≈ 63.5 µM) |  |  |  | 10 | 10
NCC[C@@H](O)[C@H](N)CC(=O)NC1CNC(=O)[C@@H](C2CCN=C(N)N2)NC(=O)/C(=C/NC(=O)Nc2ccc(C3CCCC3)cc2Cl)NC(=O)[C@@H](CO)NC(=O)[C@@H](CO)NC1=O (stereo partly drawn) |  | 3.12 (≈ 3.61 µM) |  | 3.12 (≈ 3.61 µM) |  | 6.25 (≈ 7.23 µM) |  |  |  |  | 
C[C@@H]1NC(=O)C(N)CNC(=O)[C@H](C2CCN=C(N)N2)NC(=O)C(CNC(=O)Nc2ccc(I)c(Cl)c2)NC(=O)[C@H](CNC(=O)C[C@@H](N)CCCN)NC1=O.NCCC[C@H](N)CC(=O)NC[C@@H]1NC(=O)[C@H](CO)NC(=O)C(N)CNC(=O)[C@H](C2CCN=C(N)N2)NC(=O)C(CNC(=O)Nc2ccc(I)c(Cl)c2)NC1=O (stereo partly drawn) (H-[ξDap]S[Dap](β3hOrn)[ξDap]([CO-X5])[X4]; lactam 1-C) |  | 12.5 | 0.78 | 3.12 | 6.25 | 50 |  |  | 7 |  | 
C[C@@H]1NC(=O)C(N)CNC(=O)[C@H](C2CCN=C(N)N2)NC(=O)/C(=C/NC(=O)Nc2ccc(Cc3ccccc3)cc2)NC(=O)[C@H](CNC(=O)C[C@@H](N)CCCN)NC1=O.NCCC[C@H](N)CC(=O)NC[C@@H]1NC(=O)[C@H](CO)NC(=O)C(N)CNC(=O)[C@H](C2CCN=C(N)N2)NC(=O)/C(=C/NC(=O)Nc2ccc(Cc3ccccc3)cc2)NC1=O (stereo partly drawn) (H-[ξDap]S[Dap](β3hOrn)[ΔDap(Z)]([CO-X6])[X4]; lactam 1-C) |  | 3.12 | 0.78 | 1.56 | 12.5 | 6.25 |  |  |  |  | 
NCCC[C@H](N)CC(=O)NC[C@@H]1NC(=O)[C@H](CO)NC(=O)C(N)CNC(=O)[C@H](C2CCN=C(N)N2)NC(=O)/C(=C/NC(=O)Nc2ccc(N3CCCCC3)cc2)NC1=O (stereo partly drawn) (H-[ξDap]S[Dap](β3hOrn)[ΔDap(Z)]([CO-X7])[X4]; lactam 1-C) |  | 100 (≈ 121 µM) | 1.56 (≈ 1.88 µM) | 3.12 (≈ 3.77 µM) | 50 (≈ 60.4 µM) | 100 (≈ 121 µM) |  |  |  |  | 
CN[C@H](CC(C)C)C(=O)N[C@H]1C(=O)N[C@@H](CC(N)=O)C(=O)N[C@H]2C(=O)N[C@H]3C(=O)N[C@H](C(=O)N[C@H](C(=O)O)c4cc(O)cc(O)c4-c4cc3ccc4O)[C@H](O)c3ccc(c(Cl)c3)Oc3cc2cc(c3O[C@@H]2O[C@H](CO)[C@@H](O)[C@H](O)[C@H]2O[C@H]2C[C@](C)(N)[C@H](O)[C@H](C)O2)Oc2ccc(cc2Cl)[C@H]1O [VANCOMYCIN] |  | > 100 |  | 0.78 (≈ 0.538 µM) |  | > 100 |  |  |  |  | 

Reference: ChEMBL document CHEMBL1129919, “Cyclic homopentapeptides 1. Analogs of tuberactinomycins and capreomycin with activity against vancomycin-resistant enterococci and Pasteurella” (1997)
